Data: the supplement of paper PMC13380429

How the values were obtained:
Settings in all cases: 72 h
[1] = system: Caco-2; test: cell viability relative to DMSO; higher = less toxic
[2] = system: Calu-3; test: as above
[3] = system: HepG2; test: as above
[4] = system: U2OS; test: as above
[5] = system: Vero E6; test: as above
[6] = system: Caco-2; test: relative viability EC50 (midpoint between 100% and the lowest measured viability); higher = less toxic
[7] = system: Calu-3; test: as above
[8] = system: HepG2; test: as above
[9] = system: U2OS; test: as above
[10] = system: Vero E6; test: as above
[11] = system: Caco-2; test: drug sensitivity score (DSS) for viability; higher = more toxic; extreme values may be limits of the assay
[12] = system: Calu-3; test: as above
[13] = system: HepG2; test: as above
[14] = system: U2OS; test: as above
[15] = system: Vero E6; test: as above

Structure (SMILES) | cell viability ([1]; 1 nM) [%] | cell viability ([1]; 10 nM) [%] | cell viability ([1]; 100 nM) [%] | cell viability ([1]; 1000 nM) [%] | cell viability ([1]; 10000 nM) [%] | cell viability ([2]; 1 nM) [%] | cell viability ([2]; 10 nM) [%] | cell viability ([2]; 100 nM) [%] | cell viability ([2]; 1000 nM) [%] | cell viability ([2]; 10000 nM) [%] | cell viability ([3]; 1 nM) [%] | cell viability ([3]; 10 nM) [%] | cell viability ([3]; 100 nM) [%] | cell viability ([3]; 1000 nM) [%] | cell viability ([3]; 10000 nM) [%] | cell viability ([4]; 1 nM) [%] | cell viability ([4]; 10 nM) [%] | cell viability ([4]; 100 nM) [%] | cell viability ([4]; 1000 nM) [%] | cell viability ([4]; 10000 nM) [%] | cell viability ([5]; 1 nM) [%] | cell viability ([5]; 10 nM) [%] | cell viability ([5]; 100 nM) [%] | cell viability ([5]; 1000 nM) [%] | cell viability ([5]; 10000 nM) [%] | relative viability EC50 [6] [µM] | relative viability EC50 [7] [µM] | relative viability EC50 [8] [µM] | relative viability EC50 [9] [µM] | relative viability EC50 [10] [µM] | drug sensitivity score [11] | drug sensitivity score [12] | drug sensitivity score [13] | drug sensitivity score [14] | drug sensitivity score [15]
C/C(=N\NC(=O)C(NC(=O)c1ccccc1)c1n[nH]c(=O)c2ccccc12)c1cccc(Br)c1 (stereo not given) | 101 | 102 | 106 | 95.8 | 100 | 95.7 | 113 | 100 | 107 | 108 | 97.7 | 94.2 | 98.1 | 95.4 | 106 | 99.5 | 97 | 100 | 102 | 100 | 88.3 | 97.9 | 97.4 | 100 | 104 | > 10 | > 10 | > 10 | > 10 | > 10 | 0 | 0 | 0 | 0 | 0
CC1CCN(CC[C@H]2CCCN2S(=O)(=O)c2cccc(O)c2)CC1 | 90.4 | 86.5 | 96.1 | 91.5 | 102 | 90.1 | 94.8 | 92.3 | 100 | 105 | 91.9 | 98.1 | 103 | 96.7 | 101 | 94.3 | 101 | 93.4 | 104 | 101 | 100 | 93.5 | 96.8 | 93.8 | 105 | > 10 | > 10 | > 10 | > 10 | > 10 | 0 | 0 | 0 | 0 | 0
CCOC(=O)Nc1ccc(NCc2c(C)cc(C)cc2C)cc1N | 101 | 92.6 | 101 | 97.4 | 99 | 110 | 110 | 97.3 | 104 | 96.8 | 99.5 | 95.6 | 96.5 | 92.8 | 100 | 95.9 | 103 | 98.9 | 103 | 93.1 | 99.4 | 96.7 | 90.3 | 93.3 | 99.7 | > 10 | > 10 | > 10 | > 10 | > 10 | 0 | 0 | 0 | 0 | 0
CCS(=O)(=O)N1CCN(c2ccc(Nc3ncc(C(N)=O)c(NC4CC4)n3)cc2)CC1 | 99.6 | 95.4 | 91.9 | 86.8 | 99.1 | 92.1 | 111 | 110 | 116 | 128 | 97.6 | 94.3 | 97.3 | 76.3 | 79.1 | 95.9 | 103 | 96.4 | 89.8 | 27.4 | 97.4 | 94.8 | 99.5 | 85.6 | 89.6 | > 10 | > 10 | > 10 | 2.04 | > 10 | 0 | 0 | 4 | 5.7 | 0.3
CCc1cc(O)c(Oc2ccc(C(N)=O)cc2F)cc1F | 107 | 99 | 104 | 97.9 | 101 | 106 | 97.8 | 95.3 | 98.6 | 89.3 | 110 | 94.1 | 93 | 103 | 97.4 | 104 | 99.9 | 102 | 102 | 102 | 102 | 98.2 | 99.8 | 104 | 100 | > 10 | > 10 | > 10 | > 10 | > 10 | 0 | 0 | 0 | 0 | 0
COc1ccc(Br)cc1S(=O)(=O)NC(=O)/C=C/c1ccccc1Cc1ccc2ccccc2c1 | 104 | 94 | 99.1 | 97.8 | 87.5 | 94.2 | 106 | 88 | 86.5 | 97.9 | 96.4 | 96.5 | 95.8 | 98.9 | 102 | 99.9 | 98.3 | 94.4 | 98.9 | 95.8 | 96 | 98.6 | 95.3 | 90.8 | 101 | > 10 | > 10 | > 10 | > 10 | > 10 | 0.1 | 1.7 | 0 | 0 | 0
Cc1cc(-c2cc(O)ccc2Cl)cc2nnc(Nc3ccc(OCCN4CCCC4)cc3)nc12 | 94 | 94.7 | 101 | 82.5 | 0.3 | 100 | 94.8 | 101 | 93.8 | 0.1 | 94.5 | 97.3 | 106 | 96.6 | 0 | 104 | 104 | 106 | 80 | 0 | 97.8 | 100 | 96.3 | 94 | 0 | 1.85 | 2.67 | 2.92 | 1.74 | 2.69 | 8.4 | 6.5 | 6 | 8.7 | 6.4
FC(F)(F)c1ccc(N2CCNCC2)nc1Cl | 101 | 98.5 | 107 | 104 | 96.4 | 96.1 | 105 | 93.7 | 106 | 107 | 108 | 96.2 | 92 | 106 | 104 | 97.4 | 99.9 | 95.2 | 100 | 92.7 | 101 | 98 | 95.9 | 95.6 | 95.2 | > 10 | > 10 | > 10 | > 10 | > 10 | 0 | 0 | 0 | 0 | 0
O=C(Nc1ccc(S(=O)(=O)Nc2ccccc2Cl)c(Cl)c1)c1ccccn1 | 95.7 | 88.6 | 104 | 101 | 89.8 | 108 | 91.9 | 89.8 | 87.3 | 98.2 | 99.3 | 99.8 | 91.4 | 101 | 103 | 94.8 | 93.7 | 103 | 97.8 | 98.6 | 91.6 | 96.7 | 93.6 | 101 | 105 | > 10 | > 10 | > 10 | > 10 | > 10 | 0 | 1.8 | 0 | 0 | 0
O=C(Nc1cccnn1)N1CCC(=Cc2cccc(Oc3ccc(C(F)(F)F)cn3)c2)CC1 | 100 | 104 | 102 | 96.4 | 81.4 | 104 | 95.3 | 92 | 95.3 | 84.9 | 99.9 | 97.5 | 106 | 93.3 | 34.1 | 94.3 | 96.2 | 96.3 | 97.9 | 91.2 | 96.1 | 93.3 | 93.2 | 87.3 | 96.1 | > 10 | > 10 | 2.33 | > 10 | > 10 | 0.9 | 0.2 | 4.7 | 0 | 0
O=C(Nc1cnc(Cl)nc1)c1ccc(F)c(F)c1 | 101 | 96.7 | 95 | 95.5 | 93.8 | 98.5 | 98.9 | 90.7 | 95.5 | 103 | 96.5 | 96.9 | 97.7 | 96.5 | 93.3 | 102 | 95.1 | 95.6 | 98 | 98.9 | 94.5 | 92.1 | 99.4 | 96.9 | 95.4 | > 10 | > 10 | > 10 | > 10 | > 10 | 0 | 0 | 0 | 0 | 0
